In patent US20260020566A1, “FUNGICIDAL COMPOSITIONS” (SYNGENTA CROP PROTECTION AG, priority 2022, published 2026):
Values joined by “and” are separate entries in the source; they are usually repeats but may differ in a detail not shown here. Equal values may be shown once.

Key:
Botrytis cinerea = Botrytis cinerea (Gray mould) liquid culture growth inhibition, microtiter plate; type: cell-based; details: single compound, 72 hrs, 24 C, read-out: Observed Activity (%)
Experimental: (§1) Botrytis cinerea (Gray Mould): Conidia of the fungus from cryogenic storage were directly mixed into nutrient broth (PDB potato dextrose broth). A DMSO solution of the test compounds was placed into a microtiter plate (96-well format) and the nutrient broth containing the fungal spores was added to it. The test plates were incubated at 24 C and the inhibition of growth was determined photometrically after 72 hrs.

Phakopsora pachyrhizi = Phakopsora pachyrhizi (Soybean rust) soybean leaf disk preventive fungicidal activity; type: in vivo; details: single compound, approx. 12 dpi; for inhibition at 1 g/ha / inhibition at 3 g/ha: Phakopsora pachyrhizi, foliar, read-out: Observed Activity (%)
Experimental: Phakopsora pachyrhizi (Soybean Rust): Soybean leaf disks are placed on agar in multiwell plates (24-well format) and sprayed with test solutions. After drying, the leaf disks are inoculated with a spore suspension of the fungus. After appropriate incubation the activity of a compound is assessed approx. 12 dpi (days after inoculation) as preventive fungicidal activity.

Septoria tritici = Septoria tritici (Leaf blotch) liquid culture growth inhibition, microtiter plate; type: cell-based; details: single compound, 72 hrs, 24 C
Experimental: as §1, with “Septoria tritici (Leaf Blotch):” for “Botrytis cinerea (Gray Mould):”

[1] = test system: Mycosphaerella arachidis syn. Cercospora arachidicola; experiment: Mycosphaerella arachidis syn. Cercospora arachidicola (Brown leaf spot of peanut) liquid culture growth inhibition; type: cell-based; details: single compound, approximately 5-6 days, 24 C, read-out: Observed Activity (%)
Experimental: as §1, with “Mycosphaerella arachidis syn. Cercospora arachidicola (Brown Leaf Spot of Peanut):” for “Botrytis cinerea (Gray Mould):”, “approximately 5-6 days at 620nm” for “72 hrs.”

[2] = Zymoseptoria tritici, read-out: Observed Activity (%)

Row | Compound | inhibition at 20 ppm (Botrytis cinerea) [%] | inhibition at 1 g/ha (Phakopsora pachyrhizi; 1 g a.i./ha) [%] | inhibition at 3 g/ha (Phakopsora pachyrhizi; 3 g a.i./ha) [%] | Observed Activity (%) (Phakopsora pachyrhizi; 1 g a.i./ha) | Observed Activity (%) (Phakopsora pachyrhizi; 3 g a.i./ha) | inhibition at 10 ppm (Septoria tritici; [2]) [%] | inhibition at 20 ppm (Septoria tritici; [2]) [%] | other results
1 | Fc1ccccc1C1(Nc2ncc(-c3nnc(C(F)F)o3)cn2)CC1 [Compound A-1.4, 5-[5-(difluoromethyl)-1,3,4-oxadiazol-2-yl]-N-[1-(2-fluorophenyl)cyclopropyl]pyrimidin-2-amine] | 20 | 12 | 43 | 16% | 45% | 20 | 20 | inhibition at 10 ppm (Botrytis cinerea): 20%
2 | COC(=O)NCc1cc(-c2ccn(-c3c(F)cc(C4CC4)cc3F)n2)ccc1C [methyl N-[[5-[1-(4-cyclopropyl-2,6-difluoro-phenyl)pyrazol-3-yl]-2-methyl-phenyl]methyl]carbamate, reference compound] |  | 12 | 54 |  |  |  |  | inhibition at 0.0074 ppm (Botrytis cinerea; 0.0074 ppm): 0%; inhibition at 0.022 ppm (Botrytis cinerea; 0.022 ppm): 50%; inhibition at 0.00246 ppm ([1]; 0.00246 ppm): 20%; inhibition at 0.0008 ppm (Septoria tritici; Zymoseptoria tritici, 0.0008 ppm, read-out: Observed Activity (%)): 20%
3 | CCOC(=O)c1cnn(Cc2ccc(O/C=C(\OCC)C(F)(F)F)cc2)c1 [ethyl 1-[[4-[(Z)-2-ethoxy-3,3,3-trifluoro-prop-1-enoxy]phenyl]methyl]pyrazole-4-carboxylate, reference compound] | 20 | 38 | 56 |  |  |  | 20 | inhibition at 6.66 ppm (Botrytis cinerea): 20%
4 | Fc1cccc(F)c1C1(Oc2ncc(-c3nnc(C(F)F)o3)cn2)CC1 [Compound A-1.2, 2-(difluoromethyl)-5-[2-[1-(2,6-difluorophenyl)cyclopropoxy]pyrimidin-5-yl]-1,3,4-oxadiazole] |  |  |  | 0% and 9% | 4% and 0% | 0 | 0 | Observed Activity (%) (Phakopsora pachyrhizi; 6 g a.i./ha): 5%
5 | 1-(2,6-difluoro-4-isopropyl-phenyl)pyrazole; methyl N-[(2,5-dimethylphenyl)methyl]carbamate [reference compound] |  |  |  | 3% | 65% |  |  | Observed Activity (%) (Septoria tritici; 0.0008 ppm): 20%; Observed Activity (%) (Septoria tritici; 0.00246 ppm): 70%
6 | CCOC(=O)c1cnn(Cc2ccc(OCC3(C(F)(F)F)OCCO3)cc2)c1 [ethyl 1-[[4-[[2-(trifluoromethyl)-1,3-dioxolan-2-yl]methoxy]phenyl]methyl]pyrazole-4-carboxylate] | 0 | 35 |  |  |  |  |  | inhibition at 6.66 ppm (Botrytis cinerea): 0%
7 | Fc1cccc(F)c1C1(Nc2ncc(-c3nnc(C(F)F)o3)cn2)CC1 [Compound A-1.3, 5-[5-(difluoromethyl)-1,3,4-oxadiazol-2-yl]-N-[1-(2,6-difluorophenyl)cyclopropyl]pyrimidin-2-amine] | 20 |  | 47 | 5% and 1% |  | 20 | 20 | inhibition at 10 ppm (Botrytis cinerea): 20%; inhibition at 10 ppm ([1]; 10 ppm): 20%; inhibition at 20 ppm ([1]; 20 ppm): 20%
